# Experimental data: US9296728B2, “Therapeutic compounds” (Regents of the University of Minnesota, priority 2012, dated 2016)
# Key:
# [1] = Toxicity study in healthy ICR mice (body weight, WBC, RBC); format: in vivo; details: for RBC ± SEM / WBC ± SEM: end of day 22
# Method: 60 ICR mice weighing ˜27 grams were randomly assigned into 5 groups (12 animals, 6 male and 6 female per group), one group being the control group without any drug administration (food only). The drugs were administered twice daily by P.O. or I.P. Group 1 and 3 were administered orally with 50 mg/Kg of Compound 20 and 18 mg/Kg of Compound 14 respectively. Group 2 and 4 mice were injected intraperitoneally with 6.67 mg/Kg of Compound 20 and 5.3 mg/Kg of Compound 14 (dissolved in water) respectively. The body weights of mice were recorded daily for 22 days. At the end of the 22nd day, 3 mice were randomly selected from each group and their blood samples were collected for detailed analysis of white blood cell (WBC) and red blood cell (RBC) counts. The mice were then euthanized with CO2.
# [2] = tested on: WiDr xenograft tumor model; experiment: Anticancer efficacy in Balb/c nude mice, WiDr xenograft (Example 8); format: in vivo; details: BALB/c nude mice with WiDr xenograft, 50-100 mg/Kg p.o. or i.p.
# Method: Female BALB/c nude mice weighing ˜20 g were taken and 5.0 10^6 WiDr cancer cells were implanted into their right flanks with 1:1 mixture of 0.1 mL PBS and matrigel. The mice were arbitrarily chosen by chance and assigned into 7 groups (6 animals/group) and the treatment was started from the same day of the implantation of cancer cells. Mice in group 1 were orally administered two times daily with 100 mg/Kg of Compound 20. Mice in group 2 were orally administered four times per day with 50 mg/Kg of Compound 20. Group 3 mice were injected intraperitoneally 2 times per day with 100 mg/Kg of Compound 20. Group 4 mice were injected intraperitoneally one time per day with 100 mg/Kg and group 5 mice were injected intraperitoneally 2 times per day with 50 mg/Kg of Compound 20. Group 6 was treated with 0.2 mL of 2% DMSO in water intraperitoneally 4 times daily and group 7 mice were assigned as the control group to which tumor was allowed to grow without any drug administration (food only). The tumor volume was recorded every two days using the formula
# [formula] where a is the long diameter of the tumor and b is the short diameter of the tumor. […] The inhibition rate was determined using the formula:
# [formula] where C is average tumor weight of control group, T is average tumor weight of test group. […] The inhibition rate was determined using the above formula.
compound,measurement,setting,value
COc1cc(N(c2ccccc2)c2ccccc2)ccc1/C=C(\C#N)C(=O)O [Compound 20],Weight in grams (Day 0),[1]; 6.67 mg/kg i.p. twice daily,26.98 grams
same,Weight in grams (Day 22),[1]; 6.67 mg/kg i.p. twice daily,33.54 grams
same,RBC ± SEM,[1]; 6.67 mg/kg i.p. twice daily,1.82 ± 0.05 10^13/L
same,WBC ± SEM,[1]; 6.67 mg/kg i.p. twice daily,3.83 ± 0.38 10^10/L
same,Weight in grams (Day 0),[1]; 50 mg/kg p.o. twice daily,26.91 grams
same,Weight in grams (Day 22),[1]; 50 mg/kg p.o. twice daily,32.61 grams
same,RBC ± SEM,[1]; 50 mg/kg p.o. twice daily,1.75 ± 0.06 10^13/L
same,WBC ± SEM,[1]; 50 mg/kg p.o. twice daily,4.10 ± 0.3 10^10/L
same,systemic toxicity (inference from Example 8),[2],without much systemic toxicity
